Data on 14 compounds can be found in US7598279B2, “Neurotherapeutic azole compounds” (SK Holdings Co., Ltd., priority 2005, dated 2009).

For experiment [1], the system named is mice. In words: Maximal ElectroShock (MES)-induced tonic seizure test. The settings on record: Mus musculus; for ED50: read-out: Mice MES ED50 (mpk/peak time); for responders at 50 mg/kg: 4 h. Format: in vivo. As for the experimental part:
The “Maximal ElectroShock (MES)” test is a well-established pharmacological screening method for anticonvulsants against tonic-clonic seizures. The procedure employed in the MES test for anticonvulsants is as follows. The compounds to be tested were dissolved in 30% PEG400 and administered ip and po into animals. After the designated number of hours, maximal electroshock (50 mA, 60 Hz, 0.2 sec) was applied into animals via corneal electrodes using IITC Life Science model 11A Shocker. […] Median efficacy dose (ED50) levels were determined using three different dose levels with at least 8 mice in each group.
For orientation: Protection in the maximal electroshock model is a classic sign of anticonvulsant action.

Another experiment has as its target T1, rat dopamine transporter (Rattus norvegicus, UniProt P23977).
T1 construct: expressed in transfected cells
Kind of experiment: Dopamine transport (DAT) assay, [3H]dopamine uptake in CHO D8 cells. Format: cell-based. As for the experimental part:
The “Dopamine Transport (DAT)” assay for dopamine uptake inhibition was also carried out. In order to test dopamine uptake inhibition, compounds of the inventions were assayed as modified from Zhaoping Liu et. al., Neuropharmacology, 2001, 41, 464.
Cultured CHO cells were […] with recombinant plasmid, DAT-pCDNA3, which encodes rat dopamine transporter. Several subclones were selected and assayed for [3H] dopamine uptake. The clone with the highest uptake, designated D8, was chosen for Dopamine transport assay of compounds.
For the Dopamine transport assay, D8 cells were cultured in 48-well plate using RMPI1640 containing 10% FCS. D8 cells, grown to 60,000 cells per well, each wells were rinsed once with phosphate buffered saline (PBS) and pre-incubated in 100 μl Hank's balanced salt solution (HBSS) for 10 min at room temperature. The buffer was then changed to 50 μl HBSS containing the tested compounds and 350 μl HBSS containing reaction components ([3H] dopamine, ascorbic acid and pargyline). Final concentrations of [3H] dopamine, ascorbic acid and pargyline are 151 nM, 100 μM and 100 μM, respectively. The cells were incubated for 20 min at room temperature and the reaction was terminated by aspiration of the buffer and washed three times with 1 ml cold BS. The cells were then solubilized in 2N NaOH and an aliquot was measured by liquid scintillation counting to quantify the uptake of [3H] dopamine.

The test system of experiment [2] is mice. In words: Pentylenetetrazol (PTZ)-induced clonic seizure test. As to conditions: Mus musculus, sc, read-out: Mice PTZ ED50 (mpk/peak time). In kind it is in vivo. As for the experimental part:
The “Pentylenetetrazol (PTZ)” test for anticonvulsant and antianxiety activity was also carried out.
The procedure employed in the PTZ test is as follows. The compounds to be tested were dissolved in 30% PEG400 and administered ip and po into animals. After the designated number of hours, each animal was injected subcutaneously with 100 mg/kg of PTZ (CD97 dose) and observed for up to 30 minutes for the presence or absence of clonic spasms over 5 seconds. Median efficacy dose (ED50) levels were determined using three different dose levels with 8 mice in each group.

The subject of experiment [3] is mice. Kind of experiment: Forced swimming test (FST). Format: in vivo. As to conditions: 30 min after dosing. As for the experimental part: The “Forced swimming test (FST)” for antidepressant activity was also carried out. The procedure employed in the FST for antidepressant is as follows. The compounds to be tested were dissolved in 30% PEG400 and administered ip and po into animals. 30 min later, the immobility time during post 4 minutes of 6 minutes experiment time was measured.

In experiment [4] the test system is mice. In words: Light-Dark Box (LDB) test. Format: in vivo. The settings on record: treated 30 min prior to testing. As for the experimental part: Light-Dark Box (LDB) test, one of the unconditioned conflict tests, was used to investigate anxiolytic activity for several drugs such as Diazepam, Buspirone, etc (Allikmets et al, 1996; Belzung and Griebel, 2001; Cutler and Aitken, 1991; Leyre et al, 2004). In the present study, anxiolytic effect of azole compounds containing carbamoyl group represented by general structural formula (IX) was investigated on the LDB test in mice.
The animals were treated with compound 30 min prior to testing. The light-dark box consisted of a plexiglas apparatus measuring 45 cm×27 cm×27 cm (L×W×H), and was partitioned into two compartments, one fully opaque (dark compartment made of black plexiglas: 18 cm of total length of apparatus), while the second was lit from the compartment ceiling by a 100 W bulb. A small opening (7×7 cm) in the partition wall allowed free passage between the light and dark compartments.
Animals were placed at the lit compartment first, and the latency for escape into dark was checked and tested in the LDB for 5 min after the first entering into dark box. The animal, which the latency was over 2 min, was excluded from the test. Total time spent in the light compartment was counted. Movement of animal was checked through the TV-CCD camera by an experienced observer blind to the conditions of the experiment. A mouse whose four paws were in the new box was considered as having changed box.

The subject of experiment [5] is TBPS site of GABA-A receptor. In words: GABA-A receptor (TBPS site) binding assay, [35S]TBPS. The settings on record: 100 μM; rat brain membranes, 2 nM [35S]TBPS. As for the experimental part:
Compounds of the inventions were tested for specific binding to TBPS (t-butyl bicyclophosphorothionate) site, an allosteric modulator site of GABA-A receptor as modified from G. Maksay and M. Simonyi, Eur. J. Pharmacol. 1985, 117(2), 275. and Gee, K. W. et al., J. Pharm. Exp. Ther. 1988, 246, 803.
This binding assay was performed using [35S] TBPS as radioligand in washed crude membrane homogenate from rat brains. Membrane preparations were carried out according to procedure described below. Sprague-Dawley (SD) rat weighting 230 g were killed by decapitation and their whole brains were rapidly removed and its cerebellums were excluded. The dissected brains were homogenized for 30 sec in 10 volumes (W/V) of ice-cold 0.32 M Sucrose and 50 mM Tris-citrate buffer pH 7.4 using glass homogenate. The homogenate was centrifuged at 2,000×g for 5 min at 4° C. And the supernatant re-centrifuged at 50,000×g for 20 min at 4° C. The supernatant was discarded and the resulting pellets were resuspended in 10 volumes (W/V) of ice-cold 50 mM Tris-citrate buffer pH 7.4. And then the suspended pellet was centrifuged at 50,000×g for 20 min at 4° C. The resulting pellets were suspended again in 32 volumes (W/V) of ice-cold 50 mM Tris-citrate buffer pH 7.4 with 0.05% Triton X-100 and then incubated in 37° C. for 60 min using a water bath. The incubated suspension was centrifuged at 50,000×g for 20 min at 4° C. Resuspending and centrifugation step of the remained pellets were repeated twice at the same manner and final pellets were resuspended in 10 volumes (W/V) of ice-cold 50 mM Tris-citrate buffer pH 7.4 to enable distribution of 2 ml aliquot in microcentrifuge tube, which were used immediately or kept at −80° C. for no more than 1 month before use.
For TBPS site binding assay, 50 μl of the tested compound were added to 100 μg membrane protein suspended in 0.15 ml of 50 mM Tris-citrate buffer with 200 mM NaCl pH 7.4 in presence of 2 nM of [35S] TBPS. The incubation of mixtures were carried out for 1.5 hours at 25° C. and then rapidly filtered over Whatman GF/C glass fiber filters, followed by twice 4.5 ml rinses with ice-cold incubation buffer. The filters were placed in counting vials and 4 ml scintillation solution. The vials were counted in a Beckman scintillation counter. Non-specific binding was determined in parallel incubations with 100 μM picrotoxin.
IC50 values for TBPS site binding assay was calculated using Graphpad PRISM v.3.00.

Where [6] appears, read: read-out: Mice MES Protection % (mpk/peak time).

T1 sequence (P23977 whole entry): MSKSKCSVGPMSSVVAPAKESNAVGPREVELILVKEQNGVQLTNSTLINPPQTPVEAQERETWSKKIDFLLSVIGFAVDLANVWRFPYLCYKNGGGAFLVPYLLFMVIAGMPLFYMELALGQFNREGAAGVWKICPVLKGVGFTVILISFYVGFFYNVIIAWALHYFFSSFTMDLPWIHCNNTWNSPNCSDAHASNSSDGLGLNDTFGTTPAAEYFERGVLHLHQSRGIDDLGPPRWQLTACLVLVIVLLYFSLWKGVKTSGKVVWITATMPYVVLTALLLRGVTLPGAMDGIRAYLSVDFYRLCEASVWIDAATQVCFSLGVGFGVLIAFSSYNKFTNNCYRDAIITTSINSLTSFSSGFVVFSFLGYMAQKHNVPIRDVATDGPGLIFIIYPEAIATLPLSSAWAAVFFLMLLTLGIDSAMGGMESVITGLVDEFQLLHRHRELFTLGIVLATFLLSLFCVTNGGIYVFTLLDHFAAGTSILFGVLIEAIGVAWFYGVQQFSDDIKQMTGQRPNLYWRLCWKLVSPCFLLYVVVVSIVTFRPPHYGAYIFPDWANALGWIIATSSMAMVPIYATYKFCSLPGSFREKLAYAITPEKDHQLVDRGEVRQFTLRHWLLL

For the compound `NC(=O)O[C@H](Cn1ncnn1)c1ccccc1Cl` [Example 21, Carbamic acid (S)-1-(2-chloro-phenyl)-2-tetrazol-2-yl-ethyl ester], the ED50 in the experiment on mice [1] (0.5 h) was determined as 14.2 mg/kg; with mice [2] (0.5 h), 28.8 mg/kg. On rat dopamine transporter, the inhibition (usually the drop in the measured response relative to a control, in per cent) at 10 µM was 20.9%.

As for `NC(=O)O[C@H](Cn1ncnn1)c1ccc(Cl)c(Cl)c1` [Example 96, Carbamic acid (S)-1-(3,4-dichloro-phenyl)-2-tetrazol-2-yl-ethyl ester], in the experiment on mice [1] (0.5 h), the ED50 was 10.4 mg/kg. Besides, the inhibition at 10 µM against rat dopamine transporter came to 98.4%. In addition, in the experiment on mice [3] (dose not given), the “Mice FST Reduction of immobility %” value came to 95.8%.

On to `NC(=O)OC(Cn1ncnn1)c1ccccc1` (stereo not shown) [Example 4, Carbamic acid 1-phenyl-2-tetrazol-2-yl-ethyl ester], for which the responders at 30 mg/kg in the experiment with mice [1] (0.5 h, read-out: Mice MES Protection % (mpk/peak time)) was found to be 66.7%. Also, the inhibition at 10 µM on rat dopamine transporter turned out to be 41.5%. The “Mice FST Reduction of immobility %” value with mice [3] (dose not given) turned out to be 40.3%.

Regarding `NC(=O)OC(Cn1ncnn1)c1ccc(Cl)cc1Cl` (stereo not shown) [Example 30, Carbamic acid 1-(2,4-dichloro-phenyl)-2-tetrazol-2-yl-ethyl ester], the ED50 is 14.9 mg/kg in the experiment with mice [1] (1 h) and 12.2 mg/kg in the experiment with mice [2] (1 h). Besides, the inhibition at 10 µM on rat dopamine transporter worked out at 15.1%. Besides, the “Mice LDB % Duration in the light box” value in the experiment with mice [4] (dose not given) is 143.6% ^. In addition, the “Mice FST Reduction of immobility %” value in the experiment on mice [3] is given as “N.S”.

For the compound `NC(=O)OC(Cn1nccn1)c1ccc(Cl)cc1Cl` (stereo not shown) [Example 29, Carbamic acid 1-(2,4-dichloro-phenyl)-2-[1,2,3]triazol-2-yl-ethyl ester], the ED50 is 14.4 mg/kg in the experiment on mice [1] (1 h) and 16.8 mg/kg with mice [2] (1 h). Further, the inhibition at 10 µM on rat dopamine transporter is -27.5%. In the experiment with mice [4] (dose not given), the “Mice LDB % Duration in the light box” value is given as 288.5% ^. Also, the “Mice FST Reduction of immobility %” value in the experiment with mice [3] is recorded as “N.S”.

`NC(=O)OC(Cn1ncnn1)c1ccc(Cl)c(Cl)c1` (stereo not shown) [Example 26, Carbamic acid 1-(3,4-dichloro-phenyl)-2-tetrazol-2-yl-ethyl ester]: in the experiment on mice [1] (setting [6]), the responders at 50 mg/kg worked out at 100%. The inhibition at 10 µM on rat dopamine transporter stood at 88.2%. Also, the “Mice FST Reduction of immobility %” value with mice [3] (dose not given) is 97.5%.

Turning to `NC(=O)OC(Cn1nccn1)c1ccccc1` (stereo not shown) [Example 7, Carbamic acid 1-phenyl-2-[1,2,3]triazol-2-yl-ethyl ester], the ED50 in the experiment with mice [1] (0.5 h) was 26.2 mg/kg. Further, at rat dopamine transporter, the inhibition at 10 µM is -21.1%.

With `NC(=O)OC(Cn1nccn1)c1ccc(Cl)c(Cl)c1` (stereo not shown) [Example 25, Carbamic acid 1-(3,4-dichloro-phenyl)-2-[1,2,3]triazol-2-yl-ethyl ester], the responders at 50 mg/kg in the experiment on mice [1] (setting [6]) turned out to be 100%. Moreover, the inhibition at 10 µM at rat dopamine transporter was found to be 70.7%. For the same compound, the “Mice FST Reduction of immobility %” value with mice [3] (dose not given) was 94.1%.

Turning to `CNC(=O)O[C@@H](Cn1ncnn1)c1ccccc1Cl` [Example 45, Methyl-carbamic acid (R)-1-(2-chloro-phenyl)-2-tetrazol-2-yl-ethyl ester], the ED50 amounted to 4.88 mg/kg in the experiment with mice [1] (0.5 h) and 5.81 mg/kg with mice [2] (0.5 h). At rat dopamine transporter, the inhibition at 10 µM was -58.1%. Also, in the experiment with mice [4], the “Mice LDB % Duration in the light box” value was “N.S”.

Turning to `NC(=O)O[C@@H](Cn1ncnn1)c1ccccc1Cl` [Example 20, Carbamic acid (R)-1-(2-chloro-phenyl)-2-tetrazol-2-yl-ethyl ester], the ED50 in the experiment on mice [1] (0.5 h) worked out at 4.24 mg/kg; in the experiment on mice [2] (0.5 h), 3.76 mg/kg. The inhibition at 10 µM on rat dopamine transporter turned out to be 7.1%. The “Mice FST Reduction of immobility %” value with mice [3] (dose not given) is listed as −24.3%.

Take `NC(=O)O[C@H](Cn1nccn1)c1ccc(Cl)c(Cl)c1` [Example 87, Carbamic acid (S)-1-(3,4-dichloro-phenyl)-2-[1,2,3]triazol-2-yl-ethyl ester]: the “TBPS Inhibition % (At 100 μM)” value in experiment [5] is reported as 50.1%. The ED50 in the experiment with mice [1] (0.5 h) is 14.8 mg/kg. Further, the inhibition at 10 µM against rat dopamine transporter came to 93.8%. Further, the “Mice LDB % Duration in the light box” value in the experiment on mice [4] is “N.S”. Also, the “Mice FST Reduction of immobility %” value in the experiment on mice [3] (dose not given) came to 92.5%.

As for `NC(=O)OC(Cn1nccn1)c1ccccc1Cl` (stereo not shown) [Example 1, Carbamic acid 1-(2-chloro-phenyl)-2-[1,2,3]triazol-2-yl-ethyl ester], in experiment [5], the “TBPS Inhibition % (At 100 μM)” value stood at 18.3%. Moreover, the ED50 is 10.7 mg/kg in the experiment with mice [1] (0.5 h) and 24.5 mg/kg in the experiment on mice [2] (0.5 h). Moreover, the inhibition at 10 µM on rat dopamine transporter stood at 47.3%. In addition, the “Mice FST Reduction of immobility %” value in the experiment on mice [3] is “N.S”.

Regarding `NC(=O)O[C@@H](Cn1ccnn1)c1ccc(Cl)cc1Cl` [Example 130, Carbamic acid (R)-1-(2,4-dichloro-phenyl)-2-[1,2,3]triazol-1-yl-ethyl ester], the “TBPS Inhibition % (At 100 μM)” value in experiment [5] is recorded as 42.8%. Besides, the ED50 in the experiment with mice [1] (0.5 h) turned out to be 24 mg/kg; with mice [2] (0.5 h), 8 mg/kg. The “Mice LDB % Duration in the light box” value in the experiment on mice [4] was “N.S”. Moreover, in the experiment with mice [3] (dose not given), the “Mice FST Reduction of immobility %” value is on record as 8.8%.

Turning to `NC(=O)O[C@@H](Cn1ncnn1)c1c(Cl)cccc1Cl` [Example 126, Carbamic acid (R)-1-(2,6-dichloro-phenyl)-2-tetrazol-2-yl-ethyl ester], the “TBPS Inhibition % (At 100 μM)” value in experiment [5] was 0.3%. Further, the results for the ED50 in the experiment with mice [1] (0.5 h) and with mice [2] (0.5 h) were 2.7 mg/kg and 5.06 mg/kg, respectively. The “Mice LDB % Duration in the light box” value in the experiment on mice [4] (dose not given) came out at 241.5% ^. Also, in the experiment on mice [3] (dose not given), the “Mice FST Reduction of immobility %” value came out at 72.0%.
